Assay results from patent publication US7605166B2, “Methods and compositions for treating rheumatoid arthritis” (Elan Pharmaceuticals Inc., priority 2003, dated 2009).

What was measured:
AIA Rats = experiment: Adjuvant-induced arthritis (AIA) in Lewis rats: paw swelling, erythema, histology; type: in vivo, rat
rat CIA model = experiment: Rat CIA model: paw swelling, erythema, histology; type: in vivo; settings: rat CIA, 30, 10, 3 mg/kg b.i.d.; FIG. 6
Method: Anti alpha-4 antibodies, and the compounds of Formulae W and Y were tested in the rat CIA model according to the methods shown in Table 14 below.
(§1) The results in FIG. 6 show the results for compounds. There were 8 rats per group in the efficacy study. Paw swelling and erythema were measured daily and the tarsal paws collected for histological analysis at the end of the study. Plasma which was heparinized was collected at 12 hours (i.e., the trough level) and at 4 horus after the last dose for compound measurement (FIG. 6).

[1] = Plasma compound levels in AIA rats (4 and 12 hours); type: in vivo, rat; settings: 12 hours after dosing, all concentrations tested (30, 10, 3 mg/kg)
[2] = tested on: murine collagen-induced arthritis (CIA) model; experiment: Murine collagen-induced arthritis (CIA) model: clinical scores; type: in vivo, mouse; settings: therapeutic CIA model, DBA/1LacJ mice, 100 mg/kg b.i.d.
Method: A murine collagen-induced arthritis (CIA) model was used to examine the pharmacological effect of anti-alpha4-integrin antibodies prophylactically, semi-therapeutically and therapeutically. Dosing of the antibody was begun on day 20 for the prophylactic animals. […] The results seen with the treatment of the CIA mice is seen in FIG. 1.
Peripheral blood leucocytes (PBLs) from mice treated with anti-alpha4, anti-α4β7 and anti-VCAM 1 antibodies were collected at 4, 12 and 24 hours after antibody dosing. Cells were stained with goat anti-rat antibodies to confirm antibodies in circulation.
The effect of the compound of Formula P was evaluated in a therapeutica CIA model. […] 100 DBA/1LacJ male mice, ages 6-8 weeks were obtained from Jackson Laboratories. The mice were immunized at Day 0 as follows: 100 μg bovine type II collagen (Chondrex) in Complete Freund's adjuvant (CFA, Sigma) were injected into the mice. At Day 21, another 100 μg bovine type II collagen (Chondrex) in Incomplete Freund's Adjuvant (IFA, Sigma) was injected into the mice. Treatment with the compound began when the animals had the disease (i.e., 100% therapeutic).
The mice are scored daily after the boost. […] Treatment continued for 3 weeks of dosing. Dosing was every other day for the antibody group and control group. […]

[3] = Blood levels of compound in CIA rats (12 hours trough); type: in vivo, rat; settings: at 12 hours, all concentrations tested
Method: as §1

Compound	clinical and histological scores (AIA Rats; AIA model, 30 mg/kg b.i.d.)	disease severity (AIA Rats; Example F, 3 mg/kg s.c. b.i.d.)	disease severity (rat CIA model)	disease (AIA Rats; Example F, all concentrations tested (30, 10, 3 mg/kg p.o. b.i.d.), FIG. 5)	levels of the compound relative to receptor saturation [1]	disease progression [2]	blood levels of the compound relative to receptor saturation [3]
CC(C)OC(=O)[C@H](Cc1ccc(OC(=O)N2CCN(C)CC2)cc1)NC(=O)[C@H]1N(S(=O)(=O)c2cccnc2)CSC1(C)C [Formula N, N-[N-(3-pyridinesulfonyl)-L-3,3-dimethyl-4-thiaprolyl]-O-[1-methylpiperazin-4-ylcarbonyl]-L-tyrosine isopropyl ester]	ameliorate clinical and histological scores	no effect on disease severity	neither the compound of Formula N nor Y had any impact on disease severity	–	–	–	–
CCN(CC)c1ncc(N(CC)S(=O)(=O)c2ccc(Cl)cc2)c(NC(Cc2ccc(OC(=O)N3CCCC3)cc2)C(=O)O)n1 (stereo not shown) [Formula P]	–	–	–	ameliorate disease	above receptor saturation	no effect on disease progression	above receptor saturation
